Results reported in patent US10946051B2, “Strain of Bifidobacterium animalis subsp. lactis CECT 8145 and use thereof for the treatment and/or prevention of excess weight and obesity and associated diseases” (priority 2013, dated 2021).
Values after ≈ are worked out from the molar mass of the structure shown. Read-outs that look alike come from different tables or passages of the source.

Tested on: strain BIF-1
Assay: Antibiotic resistance profile (minimum inhibitory concentration)
Type: cell-based, Bifidobacterium animalis subsp. lactis
Method: Specifically, the production of unwanted metabolites was evaluated: lactic acid isomer production (Table 9), bile-salt deconjugation (Table 10) and biogenic amine production (Table 11), and the antibiotic resistance profile (Table 12).

[1] = Bifidobacterium animalis, BIF1; read-out: CMI (minimum inhibitory concentration of antibiotics)

Compound	MIC [1] [µg/mL]	other results
O=C(N[C@H](CO)[C@H](O)c1ccc([N+](=O)[O-])cc1)C(Cl)Cl [Chloramphenicol]	4 (≈ 12.4 µM)	–
NC[C@H]1O[C@H](O[C@H]2[C@H](O)[C@@H](O[C@H]3O[C@H](CO)[C@@H](O)[C@H](N)[C@H]3O)[C@H](N)C[C@@H]2N)[C@H](O)[C@@H](O)[C@@H]1O [Kanamycin]	128 (≈ 264 µM)	–
CC[C@H]1OC(=O)[C@H](C)[C@@H](O[C@H]2C[C@@](C)(OC)[C@@H](O)[C@H](C)O2)[C@H](C)[C@@H](O[C@@H]2O[C@H](C)C[C@H](N(C)C)[C@H]2O)[C@](C)(O)C[C@@H](C)C(=O)[C@H](C)[C@@H](O)[C@]1(C)O [Erythromycin]	0.5 (≈ 0.681 µM)	–
[H]/N=C(/N)N[C@H]1[C@H](O)[C@@H](O)[C@H](O[C@@H]2O[C@@H](C)[C@](O)(C=O)[C@H]2O[C@@H]2O[C@@H](CO)[C@H](O)[C@@H](O)[C@@H]2NC)[C@@H](N/C(N)=N\[H])[C@@H]1O [Streptomycin]	128 (≈ 220 µM)	–
CN(C)[C@@H]1C(O)=C(C(N)=O)C(=O)[C@@]2(O)C(O)=C3C(=O)c4c(O)cccc4[C@@](C)(O)[C@H]3C[C@@H]12 [Tetracycline]	8 (≈ 18 µM)	–
CN[C@H](CC(C)C)C(=O)N[C@H]1C(=O)N[C@@H](CC(N)=O)C(=O)N[C@H]2C(=O)N[C@H]3C(=O)N[C@H](C(=O)N[C@H](C(=O)O)c4cc(O)cc(O)c4-c4cc3ccc4O)[C@H](O)c3ccc(c(Cl)c3)Oc3cc2cc(c3O[C@@H]2O[C@H](CO)[C@@H](O)[C@H](O)[C@H]2O[C@H]2C[C@](C)(N)[C@H](O)[C@H](C)O2)Oc2ccc(cc2Cl)[C@H]1O [Vancomycin]	–	MIC (Bifidobacterium animalis, BIF1, read-out: CMI (minimum inhibitory concentration of antibiotics)): 1 µg/mL (≈ 0.69 µM)
Gentamicin	–	CMI (minimum inhibitory concentration of antibiotics) (obtained for strain BIF-1): 64 µg/mL
CC1(C)S[C@@H]2[C@H](NC(=O)[C@H](N)c3ccccc3)C(=O)N2[C@H]1C(=O)O [Ampicillin]	2 (≈ 5.72 µM)	–
